In patent publication US9340504B2, “Pyridine and piperidine derivatives as novel sodium channel blockers” (priority 2013, dated 2016) one finds IC50 data, which are given here for six molecules.

For orientation: IC50 means the concentration at which inhibition is half-maximal.

The target of one test is human Nav1.7 (Homo sapiens (Human), UniProt Q15858). In words: FLIPR or FLIPR TETRA sodium dye assay with KCl and test article pre-incubation. The test is classed as cell-based. The note with it: read-out: Nav1.7 Activity (μM) FLIPR assay IC50 (μM) ± SEM.
human Nav1.7, sequence (Q15858 with tags, fused parts or gaps limits assumed): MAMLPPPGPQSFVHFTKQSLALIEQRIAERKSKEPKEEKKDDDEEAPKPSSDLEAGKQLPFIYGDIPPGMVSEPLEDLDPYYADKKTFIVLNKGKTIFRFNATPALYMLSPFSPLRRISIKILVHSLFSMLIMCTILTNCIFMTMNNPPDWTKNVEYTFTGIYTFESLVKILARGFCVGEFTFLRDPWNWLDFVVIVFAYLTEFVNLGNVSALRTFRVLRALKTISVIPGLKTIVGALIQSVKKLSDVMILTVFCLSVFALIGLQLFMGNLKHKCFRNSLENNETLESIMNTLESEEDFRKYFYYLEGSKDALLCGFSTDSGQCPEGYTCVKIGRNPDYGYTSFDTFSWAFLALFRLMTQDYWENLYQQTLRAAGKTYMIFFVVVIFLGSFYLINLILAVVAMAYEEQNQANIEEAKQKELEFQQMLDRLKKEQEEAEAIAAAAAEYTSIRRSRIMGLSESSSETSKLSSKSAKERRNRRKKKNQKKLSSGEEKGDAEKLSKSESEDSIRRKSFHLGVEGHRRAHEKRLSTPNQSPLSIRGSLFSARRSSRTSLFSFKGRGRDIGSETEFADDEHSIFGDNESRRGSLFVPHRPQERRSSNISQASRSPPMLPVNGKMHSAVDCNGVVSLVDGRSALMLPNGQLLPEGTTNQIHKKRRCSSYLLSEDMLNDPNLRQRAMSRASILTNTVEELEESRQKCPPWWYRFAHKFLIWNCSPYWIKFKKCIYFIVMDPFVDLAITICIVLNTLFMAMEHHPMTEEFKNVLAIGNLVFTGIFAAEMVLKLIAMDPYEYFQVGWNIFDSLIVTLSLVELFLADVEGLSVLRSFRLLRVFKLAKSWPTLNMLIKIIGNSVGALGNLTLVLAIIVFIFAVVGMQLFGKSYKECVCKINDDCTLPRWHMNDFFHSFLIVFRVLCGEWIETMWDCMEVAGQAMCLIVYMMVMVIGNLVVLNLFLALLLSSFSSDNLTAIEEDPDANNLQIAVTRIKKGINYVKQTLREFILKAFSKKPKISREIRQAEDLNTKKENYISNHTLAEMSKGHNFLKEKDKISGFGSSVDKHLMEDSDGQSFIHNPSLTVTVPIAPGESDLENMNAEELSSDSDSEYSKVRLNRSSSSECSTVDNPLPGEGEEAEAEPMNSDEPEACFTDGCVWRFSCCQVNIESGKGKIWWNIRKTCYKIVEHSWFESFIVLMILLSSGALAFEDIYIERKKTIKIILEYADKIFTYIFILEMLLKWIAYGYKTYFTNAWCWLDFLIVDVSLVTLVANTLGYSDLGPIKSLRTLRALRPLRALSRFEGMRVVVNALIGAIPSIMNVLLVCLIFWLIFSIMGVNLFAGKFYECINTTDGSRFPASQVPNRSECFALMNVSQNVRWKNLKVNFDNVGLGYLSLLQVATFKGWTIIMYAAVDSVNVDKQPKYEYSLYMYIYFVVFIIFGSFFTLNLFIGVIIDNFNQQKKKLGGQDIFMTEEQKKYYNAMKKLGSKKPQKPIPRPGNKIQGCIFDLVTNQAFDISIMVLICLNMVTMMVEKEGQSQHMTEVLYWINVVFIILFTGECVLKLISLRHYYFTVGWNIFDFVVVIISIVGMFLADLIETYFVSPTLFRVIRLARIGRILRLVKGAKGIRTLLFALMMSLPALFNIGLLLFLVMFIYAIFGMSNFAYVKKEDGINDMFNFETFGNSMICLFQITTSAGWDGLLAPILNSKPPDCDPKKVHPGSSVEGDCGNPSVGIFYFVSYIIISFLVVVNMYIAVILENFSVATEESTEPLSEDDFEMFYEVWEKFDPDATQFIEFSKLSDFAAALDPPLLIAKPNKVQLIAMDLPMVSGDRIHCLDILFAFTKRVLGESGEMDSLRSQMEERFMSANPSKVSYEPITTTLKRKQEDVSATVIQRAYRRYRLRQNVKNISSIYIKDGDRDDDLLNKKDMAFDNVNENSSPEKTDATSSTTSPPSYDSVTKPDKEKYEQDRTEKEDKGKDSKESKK
Regarding `COc1ncc(-c2ccccc2Cc2cccc(-c3ccc(OCC(F)(F)F)nc3)n2)cn1` [Compound 13, 6-(2-(2-methoxypyrimidin-5-yl)benzyl)-6′-(2,2,2-trifluoroethoxy)-2,3′-bipyridine], the IC50 amounted to 0.849 ± 0.069 µM.

Staying with this test, now noted: recombinant HEK293 cells expressing human Nav1.7 alpha subunit; CoroNa Green sodium dye; veratridine and scorpion venom as agonists; read-out: Nav1.7 Activity (μM) FLIPR assay IC50 (μM) ± SEM.
On to `Oc1ccccc1Cc1cccc(-c2ccc(OCC(F)(F)F)nc2)n1` [Compound 8, 2-((6′-(2,2,2-trifluoroethoxy)-[2,3′-bipyridin]-6-yl)methyl)phenol], for which the IC50 was above 20 µM.

For `COc1ncccc1-c1ccccc1Cc1cccc(-c2ccc(OCC(F)(F)F)nc2)n1` [Compound 11, 6-(2-(2-methoxypyridin-3-yl)benzyl)-6′-(2,2,2-trifluoroethoxy)-2,3′-bipyridine], the IC50 is above 20 µM.

Turning to `Fc1ccc(-c2ccccc2Cc2cccc(-c3ccc(OCC(F)(F)F)nc3)n2)cn1` [Compound 12, 6-(2-(6-fluoropyridin-3-yl)benzyl)-6′-(2,2,2-trifluoroethoxy)-2,3′-bipyridine], the IC50 was above 20 µM.

In the case of `CSc1ncc(-c2ccccc2Cc2cccc(-c3ccc(OCC(F)(F)F)nc3)n2)cn1` [Compound 14, 6-(2-(2-(methylthio)pyrimidin-5-yl)benzyl)-6′-(2,2,2-trifluoroethoxy)-2,3′-bipyridine], the IC50 turned out to be 0.947 ± 0.06 µM.

On to `CN(C)c1ncc(-c2ccccc2Cc2cccc(-c3ccc(OCC(F)(F)F)nc3)n2)cn1` [Compound 15, N,N-dimethyl-5-(2-((6′-(2,2,2-trifluoroethoxy)-[2,3′-bipyridin]-6-yl)methyl)phenyl)pyrimidin-2-amine], for which the IC50 was found to be 0.34 ± 0.012 µM.
